Test results from patent US20240390374A1, “MOCETINOSTAT IN COMBINATION WITH CHEMOTHERAPY TO TREAT RHABDOMYOSARCOMA” (The Regents of the University of California, priority 2021, published 2024).

How the values were obtained:
solid tumors = details: three times per week, with gemcitabine; cited from earlier work
P-gp = P-gp (Homo sapiens, UniProt P08183); details: cited from earlier work
[1] = system: CYP2E1, CYP3A, CYP2C8, CYP2C19; details: cited from earlier work
advanced solid tumors = details: cited from earlier work
[2] = system: Rhabdomyosarcoma cell lines; assay: IC50 for mocetinostat across individual cell lines from different sarcoma subtypes (FIG. 1); assay type: cell-based
[3] = system: refractory and/or recurrent rhabdomyosarcoma; assay type: in vivo, human; details: dose escalation phase; orally 3 times weekly with vinorelbine 25 mg/m2 IV day 1, 8, 15 of 21 day cycles
Method: Methods: This is an investigator initiated Phase 1 single center, open-label, dose escalation/expansion clinical trial. A modified intent to treat approach is used for efficacy analysis for a target accrual of 20 subjects in the dose expansion cohort. Eligibility criteria include subjects >/=18 years old (yo) for the phase 1 dose escalation cohort and >/=12 years old for the phase 1 dose expansion cohort with a diagnosis of R/R RMS. Mocetinostat 40 mg, 70 mg or 90 mg was taken orally 3 times weekly with vinorelbine 25 mg/m2 IV on day 1,8, and 15 in 21 day cycles. PEG-filgrastim or biosimilar was added if subject experienced grade 3/4 neutropenia in a prior cycle. The maximum tolerated dose of mocetinostat in the dose escalation phase was 40 mg, which was selected as the dose for expansion cohort. Subjects were treated until disease progression by RECIST 1.1 or unacceptable toxicity.

[4] = system: follicular lymphoma and diffuse large B cell lymphoma; details: cited from earlier work
[5] = human, in vivo; cited from earlier work
CYP2C9 = CYP2C9 (Homo sapiens, UniProt P11712); details: cited from earlier work
[6] = in vivo; cited from earlier work
[7] = cited from earlier work
[8] = orally three times per week for 2 of every 3 weeks

Chain of CYP2C9 (P11712 whole entry): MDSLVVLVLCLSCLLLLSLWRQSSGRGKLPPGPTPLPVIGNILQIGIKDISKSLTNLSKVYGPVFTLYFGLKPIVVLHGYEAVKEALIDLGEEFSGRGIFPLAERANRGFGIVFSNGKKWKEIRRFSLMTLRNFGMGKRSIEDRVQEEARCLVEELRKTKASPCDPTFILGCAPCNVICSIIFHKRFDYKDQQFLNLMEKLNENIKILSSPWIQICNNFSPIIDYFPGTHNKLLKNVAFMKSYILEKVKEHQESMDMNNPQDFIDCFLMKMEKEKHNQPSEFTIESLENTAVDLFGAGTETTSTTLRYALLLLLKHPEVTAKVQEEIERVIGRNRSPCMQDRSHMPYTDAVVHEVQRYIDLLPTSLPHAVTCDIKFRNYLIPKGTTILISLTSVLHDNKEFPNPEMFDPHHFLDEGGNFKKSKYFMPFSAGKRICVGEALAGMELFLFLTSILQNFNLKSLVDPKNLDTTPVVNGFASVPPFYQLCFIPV
Chain of P-gp (P08183 whole entry): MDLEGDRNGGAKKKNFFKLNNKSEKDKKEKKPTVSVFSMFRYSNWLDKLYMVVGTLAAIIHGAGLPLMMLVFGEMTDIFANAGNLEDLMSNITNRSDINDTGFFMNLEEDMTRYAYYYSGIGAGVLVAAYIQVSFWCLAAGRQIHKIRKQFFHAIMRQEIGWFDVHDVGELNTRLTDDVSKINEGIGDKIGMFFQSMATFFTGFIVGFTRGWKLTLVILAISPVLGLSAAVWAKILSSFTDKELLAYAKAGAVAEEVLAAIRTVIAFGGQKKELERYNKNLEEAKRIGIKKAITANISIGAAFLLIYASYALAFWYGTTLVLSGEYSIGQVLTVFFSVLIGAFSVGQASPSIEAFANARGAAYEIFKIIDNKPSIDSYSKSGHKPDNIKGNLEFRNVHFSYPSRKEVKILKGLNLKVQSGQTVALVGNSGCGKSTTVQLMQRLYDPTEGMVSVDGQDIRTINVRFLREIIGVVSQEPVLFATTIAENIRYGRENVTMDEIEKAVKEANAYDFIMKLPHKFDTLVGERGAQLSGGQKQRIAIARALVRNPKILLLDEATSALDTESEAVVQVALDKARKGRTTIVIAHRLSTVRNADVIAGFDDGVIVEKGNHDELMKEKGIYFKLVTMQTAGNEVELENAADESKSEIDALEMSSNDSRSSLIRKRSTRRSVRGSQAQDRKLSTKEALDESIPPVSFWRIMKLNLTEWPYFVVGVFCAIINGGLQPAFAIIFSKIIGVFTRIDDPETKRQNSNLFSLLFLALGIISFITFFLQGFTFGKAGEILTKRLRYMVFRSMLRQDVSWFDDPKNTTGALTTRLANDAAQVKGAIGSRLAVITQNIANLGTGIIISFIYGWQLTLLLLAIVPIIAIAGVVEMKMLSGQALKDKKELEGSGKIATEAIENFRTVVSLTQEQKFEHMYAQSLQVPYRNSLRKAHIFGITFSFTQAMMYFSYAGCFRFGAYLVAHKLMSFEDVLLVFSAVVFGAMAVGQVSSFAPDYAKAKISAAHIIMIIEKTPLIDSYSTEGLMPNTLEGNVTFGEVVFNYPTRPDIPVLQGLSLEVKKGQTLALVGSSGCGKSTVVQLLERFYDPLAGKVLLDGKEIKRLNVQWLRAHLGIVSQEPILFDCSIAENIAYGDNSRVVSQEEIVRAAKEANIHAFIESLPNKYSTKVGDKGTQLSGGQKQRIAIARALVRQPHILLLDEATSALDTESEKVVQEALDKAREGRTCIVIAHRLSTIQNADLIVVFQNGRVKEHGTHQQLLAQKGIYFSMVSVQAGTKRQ

Nc1ccccc1NC(=O)c1ccc(CNc2nccc(-c3cccnc3)n2)cc1 [mocetinostat]
MTD/RP2D of mocetinostat (solid tumors): 90 mg | P-gp interaction (P-gp): a substrate and an inhibitor of P-gp | metabolizing enzymes [1]: metabolized by CYP2E1 and CYP3A and possibly by CYP2C8 and CYP2C19 | patients with dose limiting toxicities (DLTs) (advanced solid tumors; at the 45 mg/m2/day dose): 27% | PK interpatient variability (advanced solid tumors; effect of low pH beverages): interpatient variability which improved when mocetinostat was coadministered with low pH beverages | hematologic AEs (advanced solid tumors; human, in vivo): no hematologic AEs | MTD/RP2D as equivalent fixed dose (advanced solid tumors; [8]): about 90 mg/day | maximum tolerated dose (MTD)/recommended phase II dose (RP2D) (advanced solid tumors; [8]): 45 mg/m2/day | IC50 [2]: < 100 nM | maximum tolerated dose of mocetinostat [3]: 40 mg | patients with pericardial events considered related to mocetinostat ([4]; 5 events: pericardial effusion, pericarditis, cardiac tamponade): four | Grade ≥3 treatment-related fatigue ([4]; 70-110 mg three times a week): 23.6% | Grade ≥3 treatment-related neutropenia ([4]; 70-110 mg three times a week): 15.3% | Grade ≥3 treatment-related thrombocytopenia ([4]; 70-110 mg three times a week): 12.5% | patients with Grade ≥3 treatment-related AEs ([4]; 72 patients, starting doses 70-110 mg three times a week, 4 week cycles): 56.9% | Half-life of elimination [5]: about 10 hours | accumulation with repeated dosing [5]: little to no accumulation | CYP2C9 inhibition (CYP2C9): strong CYP2C9 inhibitor

CCC1=C[C@@H]2CN(C1)Cc1c([nH]c3ccccc13)[C@@](C(=O)OC)(c1cc3c(cc1OC)N(C)[C@H]1[C@@](O)(C(=O)OC)[C@H](OC(C)=O)[C@]4(CC)C=CCN5CC[C@]31[C@@H]54)C2 [vinorelbine, methyl (1R,9R,10S,11R,12R,19R)-11-acetyloxy-12-ethyl-4-[(12S,14R)-16-ethyl-12-methoxycarbonyl-1,10-diazatetracyclo[12.3.1.03,11.04,9]octadeca-3(11),4,6,8,15-pentaen-12-yl]-10-hydroxy-5-methoxy-8-methyl-8,16-diazapentacyclo[10.6.1.01,9.02,7.016,19]nonadeca-2,4,6,13-tetraene-10 carboxylate]
grade II-IV nausea and vomiting [6]: < 10% | grade III-IV neurotoxicity [6]: rare | stability of unopened vials ([7]; at temperatures up to 25° C. (77° F.)): up to 72 hours | time diluted vinorelbine may be used ([7]; normal room light, polypropylene syringes or polyvinyl chloride bags at 5-30° C.): up to 24 hours
